Laboratory results from the CheMixHub viscosity set.

Experiment: xn = mol fraction of the nth substance listed

O=Cc1ccccc1 + CS(C)=O
viscosity [mPa·s], 101.33 kPa
Conditions	x2 = 0.1	x2 = 0.2	x2 = 0.3	x2 = 0.4	x2 = 0.5	x2 = 0.6	x2 = 0.7	x2 = 0.8	x2 = 0.9
298.15 K	1.443	1.51	1.562	1.62	1.679	1.739	1.801	1.864	1.938
308.15 K	1.22	1.266	1.314	1.362	1.411	1.461	1.51	1.56	1.609
318.15 K	1.066	1.101	1.135	1.17	1.207	1.243	1.28	1.317	1.354

OCCOCCO + CS(C)=O
308.15 K, 101 kPa
Conditions	viscosity [mPa·s]
x2 = 0.0978	16.69
x2 = 0.1794	15.85
x2 = 0.2569	14.94
x2 = 0.3945	13.49
x2 = 0.4797	12.36
x2 = 0.5804	10.83
x2 = 0.6748	8.995
x2 = 0.7945	6.227
x2 = 0.9146	3.442

[Cl-].[Cl-].[Cl-].[Cl-].[Ge+4] + CSC
293.15 K, 101 kPa
Conditions	viscosity [mPa·s]
x2 = 0.203	0.526
x2 = 0.3575	0.483
x2 = 0.4983	0.433
x2 = 0.6857	0.379
x2 = 0.8554	0.328

CCCC[N+](CCCC)(CCCC)CCCC.[Cl-] + CSCC[C@H](N)C(=O)O
Conditions	viscosity [mPa·s]
323.15 K, 101 kPa, x1 = 0.9	529

CCCC[N+](CCCC)(CCCC)CCCC.[Cl-] + C[C@@H](O)[C@H](N)C(=O)O
Conditions	viscosity [mPa·s]
313.15 K, 101 kPa, x1 = 0.9	633

CC(O)C(C)O (centres undefined) + C[N+](C)(C)CCO.[Cl-]
viscosity [mPa·s], 101.3 kPa
Conditions	303.15 K	308.15 K	313.15 K	318.15 K	323.15 K
x2 = 0.2	71.79	53.5	40.72	31.73	25.22
x2 = 0.25	84.88	63.93	48.73	38.16	30.43

OCCOCCO + C[N+](C)(C)CCO.[Cl-]
viscosity [mPa·s], 101 kPa
Conditions	293.15 K	298.15 K	303.15 K	313.15 K	323.15 K
x1 = 0.667	52.49	–	50.39	35.69	25.79
x2 = 0.25	–	55.1	–	–	–

CC(C)CCCC(C)CCCC(C)CCCC(C)C (centres undefined) + Cc1ccccc1
viscosity [mPa·s], 100 kPa
Conditions	298.15 K	313.15 K
x2 = 0.4932	2.255	1.658
x2 = 0.7449	1.263	0.974

Cc1ccc(C)cc1 + Cc1ccccc1
Conditions	viscosity [mPa·s]
293.15 K, 101.33 kPa, x2 = 0.1516	0.636
293.15 K, 101.33 kPa, x2 = 0.3137	0.624
293.15 K, 101.33 kPa, x2 = 0.6003	0.6
293.15 K, 101.33 kPa, x2 = 0.8519	0.588
298.15 K, 101 kPa, x1 = 0.1	0.5595
298.15 K, 101 kPa, x1 = 0.2	0.565
298.15 K, 101 kPa, x1 = 0.3	0.5703
298.15 K, 101 kPa, x1 = 0.4	0.5756
298.15 K, 101 kPa, x1 = 0.5	0.5807
298.15 K, 101 kPa, x1 = 0.6	0.5857
298.15 K, 101 kPa, x1 = 0.7	0.5907
298.15 K, 101 kPa, x1 = 0.8	0.5955
298.15 K, 101 kPa, x1 = 0.9	0.6001
303.15 K, 101.33 kPa, x2 = 0.1516	0.56
303.15 K, 101.33 kPa, x2 = 0.3137	0.547
303.15 K, 101.33 kPa, x2 = 0.6003	0.532
303.15 K, 101.33 kPa, x2 = 0.8519	0.526
313.15 K, 101.33 kPa, x2 = 0.1516	0.509
313.15 K, 101.33 kPa, x2 = 0.3137	0.5
313.15 K, 101.33 kPa, x2 = 0.6003	0.491
313.15 K, 101.33 kPa, x2 = 0.8519	0.47
323.15 K, 101.33 kPa, x2 = 0.1516	0.459
323.15 K, 101.33 kPa, x2 = 0.3137	0.45
323.15 K, 101.33 kPa, x2 = 0.6003	0.437
323.15 K, 101.33 kPa, x2 = 0.8519	0.423

O=Cc1ccccc1 + Cc1ccccc1
293.15 K, 100 kPa
Conditions	viscosity [mPa·s]
x1 = 0.1053	0.652
x1 = 0.2063	0.721
x1 = 0.2998	0.768
x1 = 0.4022	0.844
x1 = 0.4995	0.92
x1 = 0.6003	1.017
x1 = 0.6939	1.108
x1 = 0.8082	1.256
x1 = 0.9002	1.367

CCCCCCCCCCCCCCCCCC(=O)OC + ClC(Cl)=C(Cl)Cl
viscosity [mPa·s], 101 kPa
Conditions	x1 = 0.05	x1 = 0.1	x1 = 0.15	x1 = 0.2	x1 = 0.25	x1 = 0.3
298 K	1.41	1.65	1.8	2.14	2.62	2.93
303 K	1.33	1.55	1.68	2.01	2.36	2.63
308 K	1.24	1.47	1.58	1.89	2.16	2.4
313 K	1.17	1.39	1.47	1.76	1.97	2.2

CCCCCCCCCCCCCCCCCC(=O)OC + ClC=C(Cl)Cl
viscosity [mPa·s], 101 kPa
Conditions	x1 = 0.05	x1 = 0.1	x1 = 0.15	x1 = 0.2	x1 = 0.25	x1 = 0.3
298 K	0.77	1.04	1.37	1.73	2.09	2.61
303 K	0.74	0.98	1.3	1.6	1.9	2.39
308 K	0.71	0.93	1.21	1.5	1.77	2.2
313 K	0.68	0.89	1.14	1.4	1.66	2.01

O=Cc1ccccc1 + ClCCCl
viscosity [mPa·s], 101 kPa
Conditions	x1 = 0.3909	x1 = 0.8163	x1 = 0.8165	x1 = 0.9064
293.15 K	1.085	1.445	–	–
303.15 K	–	–	1.225	1.285

CC(F)F + FC(F)C(F)(F)F
viscosity [mPa·s], 101 kPa
Conditions	x2 = 0.248	x2 = 0.504	x2 = 0.758
298.15 K	0.1447	0.1487	0.1533
313.15 K	0.1172	0.1234	0.13

CC(F)F + FCC(F)(F)F
viscosity [mPa·s], 101 kPa
Conditions	x1 = 0.259	x1 = 0.5	x1 = 0.75
298.15 K	0.1801	0.1772	0.1647
313.15 K	0.1504	0.1444	0.1397

O.O.O.O.O.O=S(=O)([O-])[S-].[Na+].[Na+] + N#C[S-].[K+]
101.33 kPa, x2 = 0.3
Conditions	viscosity [mPa·s]
294 K	39.21
298 K	31.11
303 K	24.56
308 K	19.44
313 K	15.6
318 K	13.1
323 K	10.89

O.O.O.O.O.O=S(=O)([O-])[S-].[Na+].[Na+] + N#C[S-].[Na+]
101.33 kPa, x2 = 0.3
Conditions	viscosity [mPa·s]
308 K	30.26
313 K	23.84
318 K	19.42
323 K	15.54

C[N+](C)(C)CCO.[Cl-] + NCCO
101 kPa
Conditions	viscosity [mPa·s]
293.15 K, x1 = 0.091	40.5
293.15 K, x1 = 0.111	48.81
293.15 K, x1 = 0.143	51.72
298.15 K, x1 = 0.125	38.64
303.15 K, x1 = 0.125	30.08
308.15 K, x1 = 0.125	23.81
313.15 K, x1 = 0.091	16.33
313.15 K, x1 = 0.111	20.81
313.15 K, x1 = 0.125	19.3
313.15 K, x1 = 0.143	21.41
318.15 K, x1 = 0.125	15.79
323.15 K, x1 = 0.125	12.88

CCCC[N+](CCCC)(CCCC)CCCC.[Cl-] + N[C@@H](CO)C(=O)O
Conditions	viscosity [mPa·s]
323.15 K, 101 kPa, x1 = 0.9	491

CCCC[P+](CCCC)(CCCC)CCCC.[Cl-] + O
Conditions	viscosity [mPa·s]
298.15 K, 100 kPa, x1 = 0.008058	1.485

C[N+](C)(C)CCO.[Cl-] + O
Conditions	viscosity [mPa·s]
298.15 K, 101.33 kPa, x1 = 0.002	0.9099

Cc1ccc(S(=O)(=O)[O-])cc1.[Na+] + O
viscosity [mPa·s], 101 kPa
Conditions	x1 = 9e-05	x1 = 0.00018	x1 = 0.0009	x1 = 0.0018	x1 = 0.00448	x1 = 0.00893	x1 = 0.0133	x1 = 0.0177
298.15 K	0.899	0.9	0.916	0.941	1.002	1.113	1.235	1.368
318.15 K	0.598	0.599	0.609	0.626	0.661	0.728	0.799	0.879

NCCO.O=CO + O
viscosity [mPa·s], 101 kPa
Conditions	x1 = 0.0088	x1 = 0.0186	x2 = 0.8561	x2 = 0.8993	x2 = 0.9327	x2 = 0.9591	x2 = 0.9712
293.15 K	1.23	1.29	3.936	2.814	2.172	1.842	1.482
298.15 K	1.08	1.17	3.51	2.52	1.914	1.614	1.35
303.15 K	0.99	1.05	3.12	2.28	1.716	1.386	1.23

O=C([O-])CC(O)(CC(=O)[O-])C(=O)[O-].[Na+].[Na+].[Na+] + O
viscosity [mPa·s]
Conditions	293.15 K	298.15 K	303.15 K
101 kPa, x1 = 0.0013	–	0.94	–
101 kPa, x1 = 0.0025	–	1.033	–
101 kPa, x1 = 0.0052	–	1.126	–
101 kPa, x1 = 0.0067	–	1.21	–
101 kPa, x1 = 0.0146	–	1.805	–
101 kPa, x1 = 0.0243	–	3.067	–
101 kPa, x1 = 0.0364	–	5.952	–
101 kPa, x1 = 0.0518	–	9.7	–
101.33 kPa, x1 = 0.002	1.087	0.959	0.859
101.33 kPa, x1 = 0.0054	1.327	1.168	1.043
101.33 kPa, x1 = 0.0093	1.67	1.466	1.305
101.33 kPa, x1 = 0.0126	2.033	1.78	1.58
101.33 kPa, x1 = 0.0165	2.569	2.242	1.984
101.33 kPa, x1 = 0.0196	3.097	2.696	2.379
101.33 kPa, x1 = 0.0232	3.855	3.346	2.944
101.33 kPa, x1 = 0.0269	4.836	4.185	3.67
101.33 kPa, x1 = 0.0297	5.748	4.963	4.341
101.33 kPa, x1 = 0.0335	7.277	6.263	5.46
101.33 kPa, x1 = 0.0366	8.834	7.583	6.593

O=P([O-])([O-])[O-].[Na+].[Na+].[Na+] + O
viscosity [mPa·s], 101 kPa
Conditions	x1 = 0.0018	x1 = 0.0054	x1 = 0.0089	x1 = 0.012	x1 = 0.016
298.15 K	0.9742	1.167	1.458	1.859	2.317
303.15 K	0.8777	1.054	1.31	1.67	2.131
308.15 K	0.7769	0.9282	1.146	1.444	1.868

O=[N+]([O-])[O-].O=[N+]([O-])[O-].[Sr+2] + O
viscosity [mPa·s], 100 kPa
Conditions	x1 = 0.004	x1 = 0.009	x1 = 0.02	x1 = 0.04	x1 = 0.05
298.15 K	0.9435	1.029	1.226	1.628	2.52
323.15 K	0.589	0.639	0.775	1.012	1.524
